From patent US20220323406A1, “METHODS AND COMPOSITIONS FOR DIFFERENTIATING STEM CELLS” (Massachusetts Institute of Technology, priority 2019, published 2022)

Key:
Details in all cases: primary screen
ENR+CD organoids = experiment: Primary screen: ATP (CellTiter-Glo 3D, CTG) cell number/viability, 2.5-D 384-well ENR+CD organoids;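 further: compounds given at plating and again on day 3 over a 6-day differentiation from ENR+CV stem-cell-enriched precursors, ATP measured on day 6, plate median as control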
[1] = system: ENR+CD organoids (ISC to Paneth cell differentiation); experiment: Primary screen: CCh-stimulated lysozyme secretion LYZ.S, 2.5-D 384-well ENR+CD organoid differentiation; assay type: cell-based, mouse
Source text: (§1) High-throughput screening.

[2] = system: ENR+CD organoids (ISC to Paneth cell differentiation); experiment: Primary screen: basal (non-stimulated) lysozyme secretion LYZ.NS, 2.5-D 384-well ENR+CD organoid differentiation; assay type: cell-based, mouse
Source text: as §1

[3] = 1st dose row of the treatment (0.08 uM by row order; dose not reprinted)
[4] = 2nd dose row of the treatment (0.40 uM by row order; dose not reprinted)
[5] = 3rd dose row of the treatment (2.00 uM by row order; dose not reprinted)
[6] = 4th dose row of the treatment (10.00 uM by row order; dose not reprinted)

Compound | SSMD.CTG.Rep (strictly standardized mean difference) (ENR+CD organoids; [3]) | SSMD.CTG.Rep (strictly standardized mean difference) (ENR+CD organoids; [4]) | SSMD.CTG.Rep (strictly standardized mean difference) (ENR+CD organoids; [5]) | SSMD.CTG.Rep (strictly standardized mean difference) (ENR+CD organoids; [6]) | Dose.FC.CTG (ENR+CD organoids; dose 0.08 uM) [log2 fold change] | Z.CTG (standard z score) (ENR+CD organoids; dose 0.08 uM) | Dose.FC.CTG (ENR+CD organoids; dose 0.40 uM) [log2 fold change] | Z.CTG (standard z score) (ENR+CD organoids; dose 0.40 uM) | Dose.FC.CTG (ENR+CD organoids; dose 2.00 uM) [log2 fold change] | Z.CTG (standard z score) (ENR+CD organoids; dose 2.00 uM) | Dose.FC.CTG (ENR+CD organoids; dose 10.00 uM) [log2 fold change] | Z.CTG (standard z score) (ENR+CD organoids; dose 10.00 uM) | SSMD.LYZ.S_Rep (strictly standardized mean difference) [1, 3] | Z.LYZ.S (standard z score) [1, 3] | SSMD.LYZ.S_Rep (strictly standardized mean difference) [1, 4] | Z.LYZ.S (standard z score) [1, 4] | SSMD.LYZ.S_Rep (strictly standardized mean difference) [1, 5] | Z.LYZ.S (standard z score) [1, 5] | SSMD.LYZ.S_Rep (strictly standardized mean difference) [1, 6] | Z.LYZ.S (standard z score) [1, 6] | further results
CC(C)N(CC[C@H](c1ccccc1)c1cc(CO)ccc1O)C(C)C [4CE°8C] | −0.402 | 0.023 | −0.340 | −0.109 | −0.111 | −0.265 | 0.007 | 0.018 | −0.162 | −0.387 | −0.039 | −0.094 | 0.194 | 0.205 | 0.053 | 0.073 | −0.217 | −0.358 | −0.707 | −0.836 | Dose.FC.LYZ.S ([1]; dose 0.08 uM): 0.032 log2 fold change; Dose.FC.LYZ.S ([1]; dose 0.40 uM): 0.011 log2 fold change; Dose.FC.LYZ.S ([1]; dose 2.00 uM): −0.055 log2 fold change; Dose.FC.LYZ.S ([1]; dose 10.00 uM): −0.129 log2 fold change; SSMD.LYZ.NS_Rep (strictly standardized mean difference) [2, 3]: 0.497; SSMD.LYZ.NS_Rep (strictly standardized mean difference) [2, 4]: 0.226; SSMD.LYZ.NS_Rep (strictly standardized mean difference) [2, 5]: 0.128; SSMD.LYZ.NS_Rep (strictly standardized mean difference) [2, 6]: −0.861; Dose.FC.LYZ.NS ([2]; dose 0.08 uM): 0.069 log2 fold change; Z.LYZ.NS (standard z score) ([2]; dose 0.08 uM): 0.601; Dose.FC.LYZ.NS ([2]; dose 0.40 uM): 0.047 log2 fold change; Z.LYZ.NS (standard z score) ([2]; dose 0.40 uM): 0.413; Dose.FC.LYZ.NS ([2]; dose 2.00 uM): 0.016 log2 fold change; Z.LYZ.NS (standard z score) ([2]; dose 2.00 uM): 0.138; Dose.FC.LYZ.NS ([2]; dose 10.00 uM): −0.095 log2 fold change; Z.LYZ.NS (standard z score) ([2]; dose 10.00 uM): −0.827
O=C(O)c1ccc(N2C(=O)/C(=C\c3ccc(-c4ccc([N+](=O)[O-])cc4)o3)C=C2c2ccccc2)cc1 [4E1RCat] | 0.790 | 0.559 | 0.022 | −0.026 | 0.246 | 0.587 | 0.362 | 0.864 | 0.006 | 0.015 | −0.011 | −0.026 | 0.712 | 0.690 | 0.185 | 0.247 | 0.311 | 0.316 | 0.321 | 0.530 | Dose.FC.LYZ.S ([1]; dose 0.08 uM): 0.107 log2 fold change; Dose.FC.LYZ.S ([1]; dose 0.40 uM): 0.038 log2 fold change; Dose.FC.LYZ.S ([1]; dose 2.00 uM): 0.049 log2 fold change; Dose.FC.LYZ.S ([1]; dose 10.00 uM): 0.082 log2 fold change; SSMD.LYZ.NS_Rep (strictly standardized mean difference) [2, 3]: 0.883; SSMD.LYZ.NS_Rep (strictly standardized mean difference) [2, 4]: −0.121; SSMD.LYZ.NS_Rep (strictly standardized mean difference) [2, 5]: 0.437; SSMD.LYZ.NS_Rep (strictly standardized mean difference) [2, 6]: 0.053; Dose.FC.LYZ.NS ([2]; dose 0.08 uM): 0.100 log2 fold change; Z.LYZ.NS (standard z score) ([2]; dose 0.08 uM): 0.874; Dose.FC.LYZ.NS ([2]; dose 0.40 uM): −0.018 log2 fold change; Z.LYZ.NS (standard z score) ([2]; dose 0.40 uM): −0.154; Dose.FC.LYZ.NS ([2]; dose 2.00 uM): 0.151 log2 fold change; Z.LYZ.NS (standard z score) ([2]; dose 2.00 uM): 1.316; Dose.FC.LYZ.NS ([2]; dose 10.00 uM): 0.007 log2 fold change; Z.LYZ.NS (standard z score) ([2]; dose 10.00 uM): 0.062
CC(C)N(CC[C@H](c1ccccc1)c1cc(CO)ccc1O)C(C)C [5-hydroxymethyl Tolterodine (PNU 200577, 5-HMT, 5-HM)] | −0.118 | 0.291 | 0.114 | 0.061 | −0.062 | −0.149 | 0.087 | 0.207 | 0.034 | 0.082 | 0.017 | 0.040 | 0.460 | 0.417 | 0.266 | 0.231 | 0.174 | 0.152 | −0.042 | −0.044 | Dose.FC.LYZ.S ([1]; dose 0.08 uM): 0.065 log2 fold change; Dose.FC.LYZ.S ([1]; dose 0.40 uM): 0.036 log2 fold change; Dose.FC.LYZ.S ([1]; dose 2.00 uM): 0.023 log2 fold change; Dose.FC.LYZ.S ([1]; dose 10.00 uM): −0.007 log2 fold change; SSMD.LYZ.NS_Rep (strictly standardized mean difference) [2, 3]: 0.915; SSMD.LYZ.NS_Rep (strictly standardized mean difference) [2, 4]: 0.760; SSMD.LYZ.NS_Rep (strictly standardized mean difference) [2, 5]: 0.947; SSMD.LYZ.NS_Rep (strictly standardized mean difference) [2, 6]: 0.223; Dose.FC.LYZ.NS ([2]; dose 0.08 uM): 0.184 log2 fold change; Z.LYZ.NS (standard z score) ([2]; dose 0.08 uM): 1.599; Dose.FC.LYZ.NS ([2]; dose 0.40 uM): 0.076 log2 fold change; Z.LYZ.NS (standard z score) ([2]; dose 0.40 uM): 0.665; Dose.FC.LYZ.NS ([2]; dose 2.00 uM): 0.154 log2 fold change; Z.LYZ.NS (standard z score) ([2]; dose 2.00 uM): 1.344; Dose.FC.LYZ.NS ([2]; dose 10.00 uM): 0.034 log2 fold change; Z.LYZ.NS (standard z score) ([2]; dose 10.00 uM): 0.293
C=CCNC1=C2C[C@@H](C)C[C@H](OC)[C@H](O)[C@@H](C)/C=C(\C)[C@H](OC(N)=O)[C@@H](OC)/C=C\C=C(/C)C(=O)NC(=CC1=O)C2=O [17-AAG (Tanespimycin)] | −0.926 | −1.023 | −1.783 | −1.348 | −1.012 | −2.418 | −1.262 | −3.015 | −1.459 | −3.486 | −1.446 | −3.454 | −1.387 | −1.826 | −1.428 | −2.199 | −1.462 | −2.219 | −1.655 | −1.975 | Dose.FC.LYZ.S ([1]; dose 0.08 uM): −0.282 log2 fold change; Dose.FC.LYZ.S ([1]; dose 0.40 uM): −0.340 log2 fold change; Dose.FC.LYZ.S ([1]; dose 2.00 uM): −0.343 log2 fold change; Dose.FC.LYZ.S ([1]; dose 10.00 uM): −0.306 log2 fold change; SSMD.LYZ.NS_Rep (strictly standardized mean difference) [2, 3]: −1.180; SSMD.LYZ.NS_Rep (strictly standardized mean difference) [2, 4]: −1.186; SSMD.LYZ.NS_Rep (strictly standardized mean difference) [2, 5]: −1.053; SSMD.LYZ.NS_Rep (strictly standardized mean difference) [2, 6]: −1.183; Dose.FC.LYZ.NS ([2]; dose 0.08 uM): −0.193 log2 fold change; Z.LYZ.NS (standard z score) ([2]; dose 0.08 uM): −1.682; Dose.FC.LYZ.NS ([2]; dose 0.40 uM): −0.205 log2 fold change; Z.LYZ.NS (standard z score) ([2]; dose 0.40 uM): −1.786; Dose.FC.LYZ.NS ([2]; dose 2.00 uM): −0.142 log2 fold change; Z.LYZ.NS (standard z score) ([2]; dose 2.00 uM): −1.239; Dose.FC.LYZ.NS ([2]; dose 10.00 uM): −0.187 log2 fold change; Z.LYZ.NS (standard z score) ([2]; dose 10.00 uM): −1.631
